Assay results: article PMC8217170, “Phase Ib dose-escalation study of the hypoxia-modifier Myo-inositol trispyrophosphate in patients with hepatopancreatobiliary tumors” (Nature Communications, 2021)
“And” between values parts separate entries of the source, which are not always exact repeats. Equal entries are not always repeated.

Experiment: Plasma levels and pharmacokinetics of intravenous ITPP
Details: for VSSO / VZO / AUCTmax / AUC∞ / AUC∞ / Dose / AUMCTmax / AUMC∞ / CLO / Clast / Cmax / Cmax / Dose / Cmin / Elimination rate λz / Half-life / T0.5 / MRTTmax / MRT∞ / Tlast / Tmax: individual patients

Compound: O=P1(O)OC2C3OP(=O)(O)OP(=O)(O)OC3C3OP(=O)(O)OP(=O)(O)OC3C2OP(=O)(O)O1 (stereo not drawn) [ITPP, Myo-inositol trispyrophosphate]
- VSSO (cohort 2 (3732 mg/m2)): 10.6 L and 11.9 L and 8.8 L
- VZO (cohort 2 (3732 mg/m2)): 8.9 L and 10.8 L and 8.1 L
- AUCTmax (cohort 3 (5600 mg/m2)): 1142.0 µg·h/mL and 856.4 µg·h/mL and 1779.2 µg·h/mL
- AUC∞ (cohort 3 (5600 mg/m2)): 1264.3 µg·h/mL and 945.9 µg·h/mL and 1987.5 µg·h/mL
- AUC∞ / Dose (cohort 3 (5600 mg/m2)): 0.2 h*mg/L/mg (2×) and 0.4 h*mg/L/mg
- AUMCTmax (cohort 3 (5600 mg/m2)): 6061.8 h2*mg/L and 4859.5 h2*mg/L and 9884.9 h2*mg/L
- AUMC∞ (cohort 3 (5600 mg/m2)): 7579.9 h2*mg/L and 5932.4 h2*mg/L and 12427.3 h2*mg/L
- CLO (cohort 3 (5600 mg/m2)): 4.4 L/h and 5.9 L/h and 2.8 L/h
- Clast (cohort 3 (5600 mg/m2)): 50.5 µg/mL and 45.2 µg/mL and 94.2 µg/mL
- Cmax (cohort 3 (5600 mg/m2)): 163.0 µg/mL and 120.7 µg/mL and 246.0 µg/mL
- Cmax / Dose (cohort 3 (5600 mg/m2)): 0.0 mg/L/mg
- Cmin (cohort 3 (5600 mg/m2)): 0 ng/mL
- Elimination rate λz (cohort 3 (5600 mg/m2)): 0.4 /h and 0.5 /h (2×)
- Half-life / T0.5 (cohort 3 (5600 mg/m2)): 1.7 h and 1.4 h and 1.5 h
- MRTTmax (cohort 3 (5600 mg/m2)): 1.3 h and 1.7 h and 1.6 h
- MRT∞ (cohort 3 (5600 mg/m2)): 2.0 h and 2.3 h (2×)
- Tlast (cohort 3 (5600 mg/m2)): 10 h
- Tmax (cohort 3 (5600 mg/m2)): 6.0 h
- VSSO (cohort 3 (5600 mg/m2)): 8.8 L and 13.4 L and 6.3 L
- VZO (cohort 3 (5600 mg/m2)): 10.7 L and 11.7 L and 6.2 L
- AUCTmax (cohort 4 (7000 mg/m2)): 1942.5 µg·h/mL and 1258.2 µg·h/mL and 1667.1 µg·h/mL and 1676.0 µg·h/mL
- AUC∞ (cohort 4 (7000 mg/m2)): 3708.1 µg·h/mL and 1559.8 µg·h/mL and 2130.6 µg·h/mL and 1755.9 µg·h/mL
- AUC∞ / Dose (cohort 4 (7000 mg/m2)): 0.5 h*mg/L/mg and 0.2 h*mg/L/mg and 0.3 h*mg/L/mg (2×)
- AUMCTmax (cohort 4 (7000 mg/m2)): 11888.0 h2*mg/L and 7283.0 h2*mg/L and 9303.5 h2*mg/L and 8707.6 h2*mg/L
- AUMC∞ (cohort 4 (7000 mg/m2)): 44109.2 h2*mg/L and 11265.8 h2*mg/L and 15649.8 h2*mg/L and 9654.5 h2*mg/L
- CLO (cohort 4 (7000 mg/m2)): 1.9 L/h and 4.5 L/h and 3.3 L/h and 4.0 L/h
- Clast (cohort 4 (7000 mg/m2)): 214.0 µg/mL and 94.0 µg/mL and 125.5 µg/mL and 43.0 µg/mL
- Cmax (cohort 4 (7000 mg/m2)): 283.0 µg/mL and 166.5 µg/mL and 224.5 µg/mL and 292.0 µg/mL
- Cmax / Dose (cohort 4 (7000 mg/m2)): 0.0 mg/L/mg
- Cmin (cohort 4 (7000 mg/m2)): 0 ng/mL
- Elimination rate λz (cohort 4 (7000 mg/m2)): 0.1 /h and 0.3 /h (2×) and 0.5 /h
- Half-life / T0.5 (cohort 4 (7000 mg/m2)): 5.7 h and 2.2 h and 2.6 h and 1.3 h
- MRTTmax (cohort 4 (7000 mg/m2)): 2.1 h and 1.8 h and 1.6 h and 1.2 h
- MRT∞ (cohort 4 (7000 mg/m2)): 7.9 h and 3.2 h and 3.3 h and 1.5 h
- Tlast (cohort 4 (7000 mg/m2)): 10 h
- Tmax (cohort 4 (7000 mg/m2)): 9.0 h and 6.0 h (2×) and 3.0 h
- VSSO (cohort 4 (7000 mg/m2)): 14.9 L and 14.5 L and 11.0 L and 6.0 L
- VZO (cohort 4 (7000 mg/m2)): 15.6 L and 14.4 L and 12.1 L and 7.4 L
- AUCTmax (cohort 5 (8750 mg/m2)): 1729.5 µg·h/mL and 2397.4 µg·h/mL and 1424.5 µg·h/mL
- AUC∞ (cohort 5 (8750 mg/m2)): 1910.9 µg·h/mL and 2946.9 µg·h/mL and 1803.3 µg·h/mL
- AUC∞ / Dose (cohort 5 (8750 mg/m2)): 0.2 h*mg/L/mg (2×) and 0.3 h*mg/L/mg
- AUMCTmax (cohort 5 (8750 mg/m2)): 9560.8 h2*mg/L and 13507.9 h2*mg/L and 8120.6 h2*mg/L
- AUMC∞ (cohort 5 (8750 mg/m2)): 11777.2 h2*mg/L and 20800.6 h2*mg/L and 13329.9 h2*mg/L
- CLO (cohort 5 (8750 mg/m2)): 4.6 L/h and 3.0 L/h and 4.9 L/h
- Clast (cohort 5 (8750 mg/m2)): 81.5 µg/mL and 168.0 µg/mL and 101.0 µg/mL
- Cmax (cohort 5 (8750 mg/m2)): 266.5 µg/mL and 306.0 µg/mL and 201.0 µg/mL
- Cmax / Dose (cohort 5 (8750 mg/m2)): 0.0 mg/L/mg
- Cmin (cohort 5 (8750 mg/m2)): 0 ng/mL
- Elimination rate λz (cohort 5 (8750 mg/m2)): 0.4 /h and 0.3 /h (2×)
- Half-life / T0.5 (cohort 5 (8750 mg/m2)): 1.5 h and 2.3 h and 2.6 h
- MRTTmax (cohort 5 (8750 mg/m2)): 1.5 h and 1.6 h and 1.7 h
- MRT∞ (cohort 5 (8750 mg/m2)): 2.2 h and 3.1 h and 3.4 h
- Tlast (cohort 5 (8750 mg/m2)): 10 h
- Tmax (cohort 5 (8750 mg/m2)): 6.0 h
- VSSO (cohort 5 (8750 mg/m2)): 9.9 L and 9.1 L and 16.5 L
- VZO (cohort 5 (8750 mg/m2)): 10.2 L and 9.7 L and 18.2 L
- AUCTmax (cohort 6 (10500 mg/m2)): 1813.1 µg·h/mL and 2491.5 µg·h/mL and 3266.4 µg·h/mL and 2233.0 µg·h/mL
- AUC∞ (cohort 6 (10500 mg/m2)): 1921.1 µg·h/mL and 3551.0 µg·h/mL and 8601.3 µg·h/mL and 2661.5 µg·h/mL
- AUC∞ / Dose (cohort 6 (10500 mg/m2)): 0.2 h*mg/L/mg and 0.3 h*mg/L/mg (2×) and 0.8 h*mg/L/mg
- AUMCTmax (cohort 6 (10500 mg/m2)): 10264.8 h2*mg/L and 13653.6 h2*mg/L and 19354.9 h2*mg/L and 12411.4 h2*mg/L
- AUMC∞ (cohort 6 (10500 mg/m2)): 11500.0 h2*mg/L and 30316.3 h2*mg/L and 157035.6 h2*mg/L and 17933.0 h2*mg/L
- CLO (cohort 6 (10500 mg/m2)): 5.5 L/h and 3.0 L/h and 1.2 L/h and 3.9 L/h
- Clast (cohort 6 (10500 mg/m2)): 74.8 µg/mL and 185.0 µg/mL and 337.5 µg/mL and 148.5 µg/mL
- Cmax (cohort 6 (10500 mg/m2)): 265.0 µg/mL and 339.5 µg/mL and 451.0 µg/mL and 299.5 µg/mL
- Cmax / Dose (cohort 6 (10500 mg/m2)): 0.0 mg/L/mg
- Cmin (cohort 6 (10500 mg/m2)): 0 ng/mL
- Elimination rate λz (cohort 6 (10500 mg/m2)): 0.7 h⁻¹ and 0.2 h⁻¹ and 0.1 h⁻¹ and 0.3 h⁻¹
- Half-life / T0.5 (cohort 6 (10500 mg/m2)): 1.0 h and 4.0 h and 11.0 h and 2.0 h
- MRTTmax (cohort 6 (10500 mg/m2)): 1.7 h and 1.5 h and 1.9 h and 1.6 h
- MRT∞ (cohort 6 (10500 mg/m2)): 2.0 h and 4.5 h and 14.3 h and 2.7 h
- Tlast (cohort 6 (10500 mg/m2)): 10 h
- Tmax (cohort 6 (10500 mg/m2)): 6.0 h (2×) and 3.0 h (2×)
- VSSO (cohort 6 (10500 mg/m2)): 10.9 L and 13.4 L and 17.4 L and 10.8 L
- VZO (cohort 6 (10500 mg/m2)): 7.9 L and 16.9 L and 19.3 L and 11.4 L
- AUCTmax (cohort 7 (12390 mg/m2)): 2548.8 µg·h/mL and 2725.4 µg·h/mL and 2231.0 µg·h/mL
- AUC∞ (cohort 7 (12390 mg/m2)): 3050.7 µg·h/mL and 3012.0 µg·h/mL and 2566.2 µg·h/mL
- AUC∞ / Dose (cohort 7 (12390 mg/m2)): 0.2 mg·h/L/mg
- AUMCTmax (cohort 7 (12390 mg/m2)): 14937.6 h2*mg/L and 15888.2 h2*mg/L and 12461.8 h2*mg/L
- AUMC∞ (cohort 7 (12390 mg/m2)): 21377.1 h2*mg/L and 19295.7 h2*mg/L and 16684.7 h2*mg/L
- CLO (cohort 7 (12390 mg/m2)): 4.1 L/h (2×) and 4.8 L/h
- Clast (cohort 7 (12390 mg/m2)): 177.5 µg/mL and 152.0 µg/mL and 129.0 µg/mL
- Cmax (cohort 7 (12390 mg/m2)): 367.5 µg/mL and 403.5 µg/mL and 311.0 µg/mL
- Cmax / Dose (cohort 7 (12390 mg/m2)): 0.0 mg/L/mg
- Cmin (cohort 7 (12390 mg/m2)): 0 ng/mL
- Elimination rate λz (cohort 7 (12390 mg/m2)): 0.4 /h (2×) and 0.5 /h
- Half-life / T0.5 (cohort 7 (12390 mg/m2)): 2.0 h and 1.3 h and 1.8 h
- MRTTmax (cohort 7 (12390 mg/m2)): 1.9 h and 1.8 h and 1.6 h
- MRT∞ (cohort 7 (12390 mg/m2)): 3.0 h and 2.4 h and 2.5 h
- Tlast (cohort 7 (12390 mg/m2)): 10 h
- Tmax (cohort 7 (12390 mg/m2)): 6.0 h
- VSSO (cohort 7 (12390 mg/m2)): 12.2 L and 9.9 L and 12.1 L
- VZO (cohort 7 (12390 mg/m2)): 11.5 L and 7.8 L and 12.5 L
- AUCTmax (cohort 8 (14500 mg/m2)): 3458.0 µg·h/mL and 2612.8 µg·h/mL and 3213.9 µg·h/mL and 2461.1 µg·h/mL
- AUC∞ (cohort 8 (14500 mg/m2)): 3978.5 µg·h/mL and 2818.3 µg·h/mL and 3977.9 µg·h/mL and 2763.6 µg·h/mL
- AUC∞ / Dose (cohort 8 (14500 mg/m2)): 0.3 h*mg/L/mg (2×) and 0.2 h*mg/L/mg (2×)
- AUMCTmax (cohort 8 (14500 mg/m2)): 20144.2 h2*mg/L and 14245.4 h2*mg/L and 18540.8 h2*mg/L and 14081.6 h2*mg/L
- AUMC∞ (cohort 8 (14500 mg/m2)): 26577.3 h2*mg/L and 16679.9 h2*mg/L and 28758.2 h2*mg/L and 17835.7 h2*mg/L
- CLO (cohort 8 (14500 mg/m2)): 3.6 L/h (2×) and 5.1 L/h and 5.2 L/h
- Clast (cohort 8 (14500 mg/m2)): 220.5 µg/mL and 111.5 µg/mL and 226.5 µg/mL and 125.7 µg/mL
- Cmax (cohort 8 (14500 mg/m2)): 496.0 µg/mL and 377.0 µg/mL and 464.5 µg/mL and 426.0 µg/mL
- Cmax / Dose (cohort 8 (14500 mg/m2)): 0.0 mg/L/mg
- Cmin (cohort 8 (14500 mg/m2)): 0 ng/mL
- Elimination rate λz (cohort 8 (14500 mg/m2)): 0.4 /h (2×) and 0.5 /h and 0.3 /h
- Half-life / T0.5 (cohort 8 (14500 mg/m2)): 1.6 h and 1.3 h and 2.3 h and 1.7 h
- MRTTmax (cohort 8 (14500 mg/m2)): 1.8 h (2×) and 1.5 h and 1.7 h
- MRT∞ (cohort 8 (14500 mg/m2)): 2.7 h and 1.9 h and 3.2 h and 2.5 h
- Tlast (cohort 8 (14500 mg/m2)): 10 h
- Tmax (cohort 8 (14500 mg/m2)): 6.0 h
- VSSO (cohort 8 (14500 mg/m2)): 9.8 L and 9.9 L and 11.8 L and 12.9 L
- VZO (cohort 8 (14500 mg/m2)): 8.6 L and 9.5 L and 12.3 L and 12.6 L
- Half-life (range over the different cohorts): 1.3 to 3.3 h
